Data taken from patent US20260297164A1, “ANTI-FIBROTIC PEPTIDES AND USES THEREOF” (Deackt, Inc., priority 2021, published 2026).

Test system: TGF-β1-induced PI3K/Akt/mTOR, p62, IKK signaling in mouse lung fibroblasts
Assay: Western immunoblot of signaling proteins in TGF-β1-stimulated mouse lung fibroblasts (SDC2-pep)
Type: cell-based
Conditions: wild type fibroblasts, TGF-β1 10 ng/ml, 24 h
Procedure: FIG. 5. […] (A-C) Ptprj^fl/fl Col1a2^Cre-ER(T)+/0 mice (fibroblast-specific CD148 deficient) and Col1a2^Cre-ER(T)+/0 (WT) mice were exposed to BLM. SDC2 18-aa peptide (SDC2-pep, 0.5 mg/kg) was intranasally delivered into WT and Ptprj^fl/fl Col1a2^Cre-ER(T)+/0 mice 10 days after BLM injury. Treatments were repeated at day 12, 14, 16 and 18. (A) At 24 days after BLM exposure lungs were harvested and stained with Masson's trichrome (n=3 for saline and n=5 for BLM groups). (B) Hydroxyproline content was measured in the left lung of mice exposed to BLM (n=11) or saline (n=5). Gene expression of (C) Fn and Col1a1; and (D) connective tissue growth factor (Ctgf) in harvested lungs were measured using qPCR (n=5 for each condition). […] (E) Expression of p-AKT/Akt, p-mTOR/mTOR, p62/GAPDH p-IKKα/β/IKKα, α-SMA/GAPDH, and CD148/GAPDH was determined by Western immunoblotting (n=4), and corresponding densitometry (ImageJ software). […] (F) mRNA levels of Col1a1 and Fn were measured by qPCR (n=5 for each condition). […] Gel contractility was measured at 0, 12, and 24 h after TGF-β1 stimulation (n=6 for each condition). […] Total cell concentrations were measured in BAL fluid from Ptprj^fl/fl Col1a2^Cre-ER(T)+/0 mice and Col1a2-Cre (control) mice 21 days after BLM injury (n=5/group). […]

## TGF-β1
  expression of p-Akt, p-mTOR, p62, p-IKKα/β, and α-SMA: increased
